The values that follow come from the OligoGym collection.

Values joined by “and” are separate entries in the source; they are usually repeats but may differ in a detail not shown here. Identical values can stand only once. HELM strings list units from the 5' end as sugar, base in round brackets, then linkage (d deoxyribose, r ribose, m 2'-O-methyl, p phosphodiester). Strings are as the collection lists them, not checked against the first reports. ss, as = sense and antisense strand; [lna] = locked nucleic acid (LNA); [una] = unlocked nucleic acid; [s4r] = 4'-thioribose
Further: test system not given here.

The conditions of the series: siRNA.
For the substance “RNA1{[lna](A)p.r(U)p.r(C)p.r(U)p.r(G)p.r(A)p.r(A)p.r(G)p.r(A)p.r(A)p.r(G)p.r(G)p.r(A)p.r(G)p.r(A)p.r(A)p.r(A)p.r(A)p.r(A)p.[lna](T)p.[lna](T)}|RNA2{r(U)p.r(U)p.r(U)p.r(U)p.r(U)p.r(C)p.r(U)p.r(C)p.r(C)p.r(U)p.r(U)p.r(C)p.r(U)p.r(U)p.r(C)p.r(A)p.r(G)p.r(A)p.r(U)p.[lna](T)p.[lna](T)}$$$RNA1{StrandType:ss}|RNA2{StrandType:as}$”, the target mRNA knockdown is 93% and 95%.
The value for “RNA1{m(A)p.r(A)p.m(G)p.r(G)p.m(A)p.r(C)p.m(C)p.r(U)p.m(A)p.r(G)p.m(A)p.r(G)p.m(G)p.r(A)p.m(G)p.r(U)p.m(C)p.r(A)p.m(C)p.r(T)p.r(T)}|RNA2{m(G)p.r(U)p.m(G)p.r(A)p.r(C)p.r(U)p.r(C)p.r(C)p.r(U)p.r(C)p.r(U)p.r(A)p.m(G)p.m(G)p.r(U)p.r(C)p.r(C)p.r(U)p.r(U)p.r(T)p.r(T)}$$$RNA1{StrandType:ss}|RNA2{StrandType:as}$” was 36%.
With “RNA1{[lna](G)p.r(G)p.r(C)p.r(C)p.r(U)p.r(U)p.r(U)p.r(C)p.r(A)p.r(C)p.r(U)p.r(A)p.r(C)p.r(U)p.r(C)p.r(C)p.r(U)p.r(A)p.r(C)p.r(G)p.r(A)}|RNA2{r(G)p.r(U)p.r(A)p.r(G)p.r(G)p.r(A)p.r(G)p.r(U)p.r(A)p.r(G)p.r(U)p.r(G)p.r(A)p.r(A)p.r(A)p.r(G)p.r(G)p.r(C)p.r(C)p.r(A)p.r(G)}$$$RNA1{StrandType:ss}|RNA2{StrandType:as}$” the figure was 86%.
The value for “RNA1{r(A)p.r(G)p.r(A)p.r(A)p.r(G)p.r(G)p.r(A)p.r(C)p.m(U)p.r(A)p.r(C)p.m(U)p.r(A)p.r(A)p.r(C)p.r(C)p.r(U)p.r(C)p.r(C)p.r(T)p.r(T)}|RNA2{r(G)p.r(G)p.r(A)p.r(G)p.r(G)p.r(U)p.r(U)p.r(A)p.r(G)p.m(U)p.r(A)p.r(G)p.r(U)p.r(C)p.r(C)p.r(U)p.r(U)p.r(C)p.r(U)p.r(T)p.r(T)}$$$RNA1{StrandType:ss}|RNA2{StrandType:as}$” was 81%; that for “RNA1{r(G)p.r(A)p.r(C)p.r(G)p.r(U)p.r(A)p.r(A)p.r(A)p.r(C)p.r(G)p.r(G)p.r(C)p.r(C)p.r(A)p.r(C)p.r(A)p.r(A)p.r(G)p.r(U)p.[lna](T)p.[lna](C)}|RNA2{r(A)p.r(C)p.[lna](T)p.r(U)p.r(G)p.[lna](T)p.r(G)p.r(G)p.r(C)p.r(C)p.r(G)p.r(U)p.r(U)p.[lna](T)p.r(A)p.r(C)p.r(G)p.[lna](T)p.r(C)p.[lna](G)p.[lna](C)}$$$RNA1{StrandType:ss}|RNA2{StrandType:as}$” was 3%.
For “RNA1{r(G)p.r(G)p.r(A)p.r(A)p.r(G)p.m(U)p.r(A)p.r(A)p.r(G)p.r(G)p.r(A)p.r(C)p.m(C)p.r(A)p.r(G)p.r(A)p.r(G)p.r(A)p.r(C)p.r(T)p.r(T)}|RNA2{r(G)p.r(U)p.r(C)p.r(U)p.r(C)p.m(U)p.r(G)p.r(G)p.r(U)p.r(C)p.r(C)p.r(U)p.m(U)p.r(A)p.r(C)p.r(U)p.r(U)p.r(C)p.r(C)p.r(T)p.r(T)}$$$RNA1{StrandType:ss}|RNA2{StrandType:as}$”, the target mRNA knockdown amounted to 41%.
The substance “RNA1{m(U)p.r(A)p.r(A)p.r(A)p.r(G)p.r(C)p.r(U)p.r(G)p.r(G)p.r(A)p.r(A)p.r(A)p.r(G)p.r(G)p.r(G)p.r(A)p.r(C)p.r(G)p.r(G)p.r(T)p.r(T)}|RNA2{r(C)p.r(C)p.r(G)p.r(U)p.r(C)p.r(C)p.r(C)p.r(U)p.r(U)p.r(U)p.r(C)p.r(C)p.r(A)p.r(G)p.r(C)p.r(U)p.r(U)p.m(U)p.r(A)p.r(T)p.r(T)}$$$RNA1{StrandType:ss}|RNA2{StrandType:as}$” gave a target mRNA knockdown of 67%.
The value for “RNA1{r(A)p.r(A)p.r(A)p.r(G)p.r(C)p.r(G)p.r(G)p.r(U)p.r(G)p.r(G)p.r(A)p.r(U)p.r(C)p.r(A)p.r(G)p.r(C)p.r(U)p.r(C)p.r(U)p.r(T)p.r(T)}|RNA2{r(A)p.r(G)p.r(A)p.r(G)p.r(C)p.m(U)p.r(G)p.r(A)p.r(U)p.r(C)p.m(C)p.r(A)p.r(C)p.r(C)p.r(G)p.r(C)p.r(U)p.r(U)p.r(U)p.r(T)p.r(T)}$$$RNA1{StrandType:ss}|RNA2{StrandType:as}$” was 67%; that for “RNA1{r(G)p.r(U)p.r(A)p.r(U)p.r(G)p.r(A)p.r(C)p.r(C)p.r(G)p.r(A)p.r(C)p.r(U)p.r(A)p.r(C)p.r(G)p.r(C)p.r(G)p.r(U)p.r(A)p.r(T)p.r(T)}|RNA2{r(U)p.r(U)p.r(C)p.[una](A)p.r(G)p.r(U)p.r(G)p.r(U)p.r(G)p.r(A)p.r(U)p.r(G)p.r(A)p.r(C)p.r(A)p.r(C)p.r(U)p.r(U)p.r(G)p.r(T)p.r(T)}$$$RNA1{StrandType:ss}|RNA2{StrandType:as}$” was 94%; that for “RNA1{r(C)p.r(G)p.r(U)p.r(A)p.r(C)p.r(G)p.r(C)p.r(G)p.r(G)p.r(A)p.r(A)p.r(U)p.r(A)p.r(C)p.r(U)p.r(U)p.r(C)p.r(G)p.r(A)p.r(T)p.r(T)}|RNA2{r(U)p.r(C)p.r(G)p.r(A)p.r(A)p.r(G)p.r(U)p.r(A)p.r(U)p.r(U)p.r(C)p.r(C)p.r(G)p.r(C)p.r(G)p.r(U)p.r(A)p.[s4r](C)p.[s4r](G)p.r(T)p.r(T)}$$$RNA1{StrandType:ss}|RNA2{StrandType:as}$” was 90.2%.
Substance “RNA1{r(G)p.m(C)p.r(A)p.r(G)p.r(A)p.r(G)p.r(A)p.r(A)p.m(U)p.m(C)p.m(U)p.r(A)p.m(C)p.m(C)p.m(U)p.m(U)p.m(U)p.m(C)p.m(C)p.r(T)p.r(T)}|RNA2{r(G)p.r(G)p.r(A)p.r(A)p.r(A)p.r(G)p.r(G)p.m(U)p.r(A)p.r(G)p.r(A)p.m(U)p.m(U)p.m(C)p.m(U)p.m(C)p.m(U)p.r(G)p.m(C)p.r(T)p.r(T)}$$$RNA1{StrandType:ss}|RNA2{StrandType:as}$” displayed a target mRNA knockdown of 13%.
The value for “RNA1{m(A)p.m(A)p.r(C)p.r(C)p.r(C)p.m(A)p.r(C)p.r(C)p.m(A)p.r(C)p.m(A)p.r(G)p.r(C)p.m(U)p.m(A)p.r(G)p.m(A)p.m(A)p.r(C)p.m(U)p.m(U)}|RNA2{r(A)p.r(A)p.r(G)p.r(U)p.r(U)p.r(C)p.m(U)p.m(A)p.r(G)p.r(C)p.r(U)p.r(G)p.r(U)p.r(G)p.r(G)p.r(U)p.r(G)p.r(G)p.r(G)p.r(U)p.r(U)}$$$RNA1{StrandType:ss}|RNA2{StrandType:as}$” was 44%.
With “RNA1{[s4r](A)p.[s4r](A)p.[s4r](A)p.[s4r](C)p.r(A)p.r(U)p.r(G)p.r(C)p.r(A)p.r(G)p.r(A)p.r(A)p.r(A)p.r(A)p.r(U)p.r(G)p.r(C)p.r(U)p.r(G)p.r(T)p.r(T)}|RNA2{r(C)p.r(A)p.r(G)p.r(C)p.r(A)p.r(U)p.r(U)p.r(U)p.r(U)p.r(C)p.r(U)p.r(G)p.r(C)p.r(A)p.r(U)p.[s4r](G)p.[s4r](U)p.[s4r](U)p.[s4r](U)p.r(T)p.r(T)}$$$RNA1{StrandType:ss}|RNA2{StrandType:as}$” the figure was 80.7%.
The value for “RNA1{r(C)p.r(C)p.r(U)p.r(C)p.r(C)p.r(C)p.r(C)p.r(A)p.r(U)p.r(C)p.r(C)p.r(C)p.r(C)p.r(U)p.r(U)p.r(U)p.r(U)p.r(A)p.r(A)p.r(T)p.r(T)}|RNA2{r(U)p.r(U)p.m(A)p.r(A)p.r(A)p.r(A)p.r(G)p.r(G)p.r(G)p.r(G)p.r(A)p.r(U)p.r(G)p.r(G)p.r(G)p.r(G)p.r(A)p.r(G)p.r(G)p.r(T)p.r(T)}$$$RNA1{StrandType:ss}|RNA2{StrandType:as}$” was 80%; that for “RNA1{m(C)p.r(U)p.m(C)p.r(A)p.m(A)p.r(A)p.m(U)p.r(C)p.m(A)p.r(A)p.m(G)p.r(G)p.m(C)p.r(C)p.m(G)p.r(G)p.m(A)p.r(G)p.m(U)p.r(T)p.r(T)}|RNA2{r(A)p.r(C)p.r(U)p.r(C)p.r(C)p.m(G)p.m(G)p.r(C)p.r(C)p.r(U)p.r(U)p.m(G)p.r(A)p.r(U)p.r(U)p.r(U)p.m(G)p.r(A)p.m(G)p.r(T)p.r(T)}$$$RNA1{StrandType:ss}|RNA2{StrandType:as}$” was 36%.
Substance “RNA1{r(G)p.r(C)p.r(U)p.r(G)p.r(A)p.r(G)p.r(G)p.r(A)p.r(A)p.r(A)p.r(G)p.r(G)p.r(G)p.r(A)p.r(C)p.r(A)p.r(U)p.r(C)p.r(U)p.r(T)p.r(T)}|RNA2{r(A)p.r(G)p.m(A)p.m(U)p.r(G)p.r(U)p.r(C)p.r(C)p.r(C)p.r(U)p.r(U)p.r(U)p.r(C)p.r(C)p.r(U)p.r(C)p.r(A)p.r(G)p.r(C)p.r(T)p.r(T)}$$$RNA1{StrandType:ss}|RNA2{StrandType:as}$” had a target mRNA knockdown of 78%.
The value for “RNA1{r(G)p.r(G)p.m(U)p.r(A)p.r(G)p.r(A)p.r(A)p.r(U)p.r(A)p.r(G)p.r(G)p.r(U)p.r(U)p.r(U)p.r(U)p.r(C)p.r(C)p.r(C)p.r(C)p.r(T)p.r(T)}|RNA2{r(G)p.r(G)p.r(G)p.r(G)p.r(A)p.r(A)p.r(A)p.r(A)p.r(C)p.r(C)p.m(U)p.r(A)p.r(U)p.r(U)p.r(C)p.r(U)p.r(A)p.r(C)p.r(C)p.r(T)p.r(T)}$$$RNA1{StrandType:ss}|RNA2{StrandType:as}$” was 82%.
Turning to “RNA1{m(U)p.r(G)p.m(A)p.r(A)p.m(C)p.r(G)p.m(U)p.r(C)p.m(A)p.r(C)p.m(C)p.r(G)p.m(A)p.r(G)p.m(G)p.r(A)p.m(G)p.r(A)p.m(A)p.r(T)p.r(T)}|RNA2{r(U)p.r(U)p.r(C)p.r(U)p.r(C)p.r(C)p.r(U)p.r(C)p.r(G)p.r(G)p.r(U)p.r(G)p.m(A)p.r(C)p.r(G)p.r(U)p.r(U)p.r(C)p.m(A)p.r(T)p.r(T)}$$$RNA1{StrandType:ss}|RNA2{StrandType:as}$”, the target mRNA knockdown was found to be 65%.
The value for “RNA1{r(G)p.r(A)p.r(U)p.r(U)p.r(C)p.r(C)p.r(A)p.r(A)p.r(A)p.r(C)p.r(C)p.r(C)p.r(C)p.r(A)p.r(C)p.m(U)p.r(A)p.r(U)p.r(C)p.r(T)p.r(T)}|RNA2{r(G)p.r(A)p.r(U)p.m(A)p.r(G)p.r(U)p.r(G)p.r(G)p.r(G)p.r(G)p.r(U)p.r(U)p.r(U)p.r(G)p.r(G)p.r(A)p.r(A)p.r(U)p.r(C)p.r(T)p.r(T)}$$$RNA1{StrandType:ss}|RNA2{StrandType:as}$” was 69%.
With “RNA1{m(A)p.r(A)p.m(G)p.r(G)p.m(A)p.r(G)p.m(A)p.r(U)p.m(C)p.r(A)p.m(A)p.r(C)p.m(A)p.r(U)p.m(U)p.r(U)p.m(U)p.r(C)p.m(A)p.r(T)p.r(T)}|RNA2{m(U)p.r(G)p.m(A)p.r(A)p.m(A)p.r(A)p.m(U)p.r(G)p.m(U)p.r(U)p.m(G)p.r(A)p.m(U)p.r(C)p.m(U)p.r(C)p.m(C)p.r(U)p.m(U)p.r(T)p.r(T)}$$$RNA1{StrandType:ss}|RNA2{StrandType:as}$” the figure was 75%.
